Earlier results, collected in US20180271820A1, “METHODS OF TREATING HEART FAILURE” (priority 2015, published 2018).
Counter-ions that a name gives are not always drawn.

Experiments:
[1] = cited from earlier work
patients = conditions: 120 mg, 240 mg, daily, BID, and TID; cited from earlier work
[2] = tested on: patients with symptomatic heart failure and a preserved ejection fraction; conditions: 3,445 patients, TOPCAT trial; cited from earlier work
[3] = tested on: patients with preserved EF; conditions: GISSI-HF, rosuvastatin or placebo; cited from earlier work
HFPEF patients = conditions: RELAX trial; cited from earlier work
Ehrlich ascites tumor = conditions: mice; cited from earlier work

SMILES: COC(=O)/C=C/C(=O)OC [DMF, dimethyl fumarate]
- aqueous solubility [1]: poor
- side effect profile across dosages (patients): similar

SMILES: CC(=O)S[C@@H]1CC2=CC(=O)CC[C@]2(C)[C@H]2CC[C@@]3(C)[C@@H](CC[C@@]34CCC(=O)O4)[C@H]12 [spironolactone]
- incidence of primary composite outcome of death from cardiovascular causes, cardiac arrest, or hospitalization for heart failure [2]: did not significantly reduce

SMILES: CC(C)c1nc(N(C)S(C)(=O)=O)nc(-c2ccc(F)cc2)c1/C=C/[C@@H](O)C[C@@H](O)CC(=O)O [rosuvastatin]
- benefit in subgroup of patients with preserved EF [3]: no benefit

SMILES: CCCc1nn(C)c2c(=O)[nH]c(-c3cc(S(=O)(=O)N4CCN(C)CC4)ccc3OCC)nc12 [sildenafil]
- primary outcome of functional capacity (HFPEF patients): did not impact

SMILES: O=C(O)/C=C/C(=O)O [Fumaric acid]
- growth of the Ehrlich ascites tumor (Ehrlich ascites tumor): inhibits the growth
